Assay results published in publication PMC12122562, “Phase 1 studies of the indenoisoquinolines LMP776 and LMP744 in patients with solid tumors and lymphomas” (Cancer Chemotherapy and Pharmacology, 2025).
Entries after “also recorded” stand apart in the source; their conditions may differ. Where two headings read alike, the source gives them in different places.

How the values were obtained:
[1] = system: naturally occurring lymphomas; set-up: method as in PMID 30061364; details: canines with lymphomas; cited from earlier work
[2] = Plasma pharmacokinetics of LMP776, non-compartmental; format: in vivo, human; details: for half-life / AUC(0-inf) / AUC(0-t) / Cmax / Tmax: human, plasma, intravenous
Procedure: Blood was collected during cycle 1 in the LMP744 study on C1D1 at the end of infusion (EOI), then again at 0.25, 0.5, 1, 2, 4, and 6 h after EOI. Blood was also collected prior to infusion and at EOI on days 2–5 during cycle 1, then again at 1 week (168 h) after C1D1 EOI. Samples were collected in EDTA tubes with 2 mL of blood per sample. Samples were centrifuged and plasma was stored at − 70 °C. Samples were analyzed using a validated LC–MS or LC–MS/MS method for each IIQ as previously described. Plasma-time data were analyzed using WinNonlin (Pharsight, Mountain View, CA). AUC values were calculated by non-compartmental analysis and end-of-infusion concentrations were measured on days 1 and 5 of cycle 1. Sample collection and analysis of LMP776 pharmacokinetics were performed as previously described.

In the case of `COc1cc2c3c(n(CCCn4ccnc4)c(=O)c2cc1OC)-c1cc2c(cc1C3=O)OCO2` [LMP776], the Responders [1] is given as 7 of 24, the Response rate [1] is given as 29.2% and the Cl ([2]; DL1, 1 mg/m2, n=1) is given as 2.78 L/h/m2. For the same molecule, the Vd ([2]; DL1, 1 mg/m2, n=1) was 63.4 L/m2, the Vss ([2]; DL1, 1 mg/m2, n=1) was 57.9 L/m2 and the Cl ([2]; DL2, 2 mg/m2, n=7) was 4.0 (1.1) L/h/m2. The Vd ([2]; DL2, 2 mg/m2, n=7) was 58.4 L/m2, the Vss ([2]; DL2, 2 mg/m2, n=7) was 54.7 L/m2 and the Cl ([2]; DL3, 3 mg/m2, n=3) was 2.7 (0.5) L/h/m2. The Vd ([2]; DL3, 3 mg/m2, n=3) was 37.5 L/m2, the Vss ([2]; DL3, 3 mg/m2, n=3) was 35.4 L/m2 and the Cl ([2]; DL4, 4.5 mg/m2, n=3) was 3.7 (1.2) L/h/m2. The Vd ([2]; DL4, 4.5 mg/m2, n=3) was 49.7 L/m2, the Vss ([2]; DL4, 4.5 mg/m2, n=3) was 44.0 L/m2 and the Cl ([2]; DL5, 6.75 mg/m2, n=3) was 3.8 (1.6) L/h/m2. The Vd ([2]; DL5, 6.75 mg/m2, n=3) was 48.2 L/m2, the Vss ([2]; DL5, 6.75 mg/m2, n=3) was 41.7 L/m2 and the Cl ([2]; DL6, 9 mg/m2, n=2) was 3.4 (1.5) L/h/m2. For the same molecule, the Vd ([2]; DL6, 9 mg/m2, n=2) was 62.7 L/m2, the Vss ([2]; DL6, 9 mg/m2, n=2) was 55.8 L/m2 and the Cl ([2]; DL7 (MTD), 12 mg/m2, n=6) was 3.2 (1.5) L/h/m2. For the same molecule, the Vd ([2]; DL7 (MTD), 12 mg/m2, n=6) was 40.7 L/m2, the Vss ([2]; DL7 (MTD), 12 mg/m2, n=6) was 38.5 L/m2 and the Cl ([2]; DL8, 16 mg/m2, n=7) was 3.0 (1.4) L/h/m2. For the same molecule, the Vd ([2]; DL8, 16 mg/m2, n=7) was 39.5 L/m2, the Vss ([2]; DL8, 16 mg/m2, n=7) was 37.1 L/m2 and the half-life ([2]; 1 mg/m2, DL1, 1 mg/m2, n=1, read-out: t1/2 (converted)) was 38.6 h. For the same molecule, the half-life ([2]; 2 mg/m2, DL2, 2 mg/m2, n=7, read-out: t1/2 (converted)) was 20.8 h, the half-life ([2]; 3 mg/m2, DL3, 3 mg/m2, n=3, read-out: t1/2 (converted)) was 13.6 h and the half-life ([2]; 4.5 mg/m2, DL4, 4.5 mg/m2, n=3, read-out: t1/2 (converted)) was 13.8 h. It also gave a half-life ([2]; 6.75 mg/m2, DL5, 6.75 mg/m2, n=3, read-out: t1/2 (converted)) of 11.5 h, a half-life ([2]; 9 mg/m2, DL6, 9 mg/m2, n=2, read-out: t1/2 (converted)) of 31.4 h and a half-life ([2]; 12 mg/m2, DL7 (MTD), 12 mg/m2, n=6, read-out: t1/2 (mean half-life) (converted)) of 12.6 h. It also gave a half-life ([2]; 12 mg/m2, MTD (DL7, 12 mg/m^2, n = 6), read-out: Half-life, range) of 8.2 to 16 h, a half-life ([2]; 16 mg/m2, DL8, 16 mg/m2, n=7, read-out: t1/2 (converted)) of 13.4 h and an AUC(0-inf) ([2]; DL1, 1 mg/m2, n=1) of 880 ng·h/mL. It also gave an AUC(0-t) ([2]; DL1, 1 mg/m2, n=1) of 359 ng·h/mL, a Cmax ([2]; DL1, 1 mg/m2, n=1) of 46.9 ng/mL and a Tmax ([2]; DL1, 1 mg/m2, n=1) of 1 h. The AUC(0-inf) ([2]; DL2, 2 mg/m2, n=7) was 1060 ng·h/mL, the AUC(0-t) ([2]; DL2, 2 mg/m2, n=7) was 530 ng·h/mL and the Cmax ([2]; DL2, 2 mg/m2, n=7) was 64.4 ng/mL. For the same molecule, the Tmax ([2]; DL2, 2 mg/m2, n=7) was 1 h, the AUC(0-inf) ([2]; DL3, 3 mg/m2, n=3) was 1580 ng·h/mL and the AUC(0-t) ([2]; DL3, 3 mg/m2, n=3) was 1150 ng·h/mL. It also gave a Cmax ([2]; DL3, 3 mg/m2, n=3) of 124 ng/mL, a Tmax ([2]; DL3, 3 mg/m2, n=3) of 1 h and an AUC(0-inf) ([2]; DL4, 4.5 mg/m2, n=3) of 1850 ng·h/mL. For the same molecule, the AUC(0-t) ([2]; DL4, 4.5 mg/m2, n=3) was 1300 ng·h/mL, the Cmax ([2]; DL4, 4.5 mg/m2, n=3) was 178 ng/mL and the Tmax ([2]; DL4, 4.5 mg/m2, n=3) was 1 h. For the same molecule, the AUC(0-inf) ([2]; DL5, 6.75 mg/m2, n=3) was 2510 ng·h/mL, the AUC(0-t) ([2]; DL5, 6.75 mg/m2, n=3) was 1980 ng·h/mL and the Cmax ([2]; DL5, 6.75 mg/m2, n=3) was 273 ng/mL. For the same molecule, the Tmax ([2]; DL5, 6.75 mg/m2, n=3) was 1 h, the AUC(0-inf) ([2]; DL6, 9 mg/m2, n=2) was 7200 ng·h/mL and the AUC(0-t) ([2]; DL6, 9 mg/m2, n=2) was 2970 ng·h/mL. The Cmax ([2]; DL6, 9 mg/m2, n=2) was 296 ng/mL, the Tmax ([2]; DL6, 9 mg/m2, n=2) was 1 h and the AUC(0-inf) ([2]; DL7 (MTD), 12 mg/m2, n=6) was 5890 ng·h/mL. It also gave an AUC(0-t) ([2]; DL7 (MTD), 12 mg/m2, n=6) of 4270 ng·h/mL, a Cmax ([2]; DL7 (MTD), 12 mg/m2, n=6) of 523 ng/mL and a Tmax ([2]; DL7 (MTD), 12 mg/m2, n=6) of 1.1 h. It also gave an AUC(0-inf) ([2]; DL8, 16 mg/m2, n=7) of 8920 ng·h/mL, an AUC(0-t) ([2]; DL8, 16 mg/m2, n=7) of 6170 ng·h/mL and a Cmax ([2]; DL8, 16 mg/m2, n=7) of 770 ng/mL. The Tmax ([2]; DL8, 16 mg/m2, n=7) was 1.1 h, the “Dependence of half-life on dose” value ([2]; in vivo) was “did not vary with dose level; also recorded: half-life was independent of dose” and the “Systemic exposure (AUC) versus dose level” value ([2]; in vivo) was “increased linearly with dose level”.

For `COc1cc2c3c(n(CCCNCCO)c(=O)c2cc1OC)-c1cc2c(cc1C3=O)OCO2` [LMP744], the Responders [1] is given as 13 of 19 and the Response rate [1] is given as 68.4%.
